These are literature values, as cited in patent US7253172B2, “Dipeptidyl peptidase inhibitors for the treatment of diabetes” (Merck & Co., Inc., priority 2001, dated 2007).

One series deals with cardiac allograft. To be noted: rats; doubled from day 7 to day 14.
A further series has as its system hematopoiesis. To be noted: mouse, cyclophosphamide-induced neutropenia.
The next series deals with T1, DP-IV (Homo sapiens, UniProt P27487).
T1 construct: GRF is rapidly degraded in plasma to GRF[3–44]
T1 sequence (P27487 39-766 limits assumed): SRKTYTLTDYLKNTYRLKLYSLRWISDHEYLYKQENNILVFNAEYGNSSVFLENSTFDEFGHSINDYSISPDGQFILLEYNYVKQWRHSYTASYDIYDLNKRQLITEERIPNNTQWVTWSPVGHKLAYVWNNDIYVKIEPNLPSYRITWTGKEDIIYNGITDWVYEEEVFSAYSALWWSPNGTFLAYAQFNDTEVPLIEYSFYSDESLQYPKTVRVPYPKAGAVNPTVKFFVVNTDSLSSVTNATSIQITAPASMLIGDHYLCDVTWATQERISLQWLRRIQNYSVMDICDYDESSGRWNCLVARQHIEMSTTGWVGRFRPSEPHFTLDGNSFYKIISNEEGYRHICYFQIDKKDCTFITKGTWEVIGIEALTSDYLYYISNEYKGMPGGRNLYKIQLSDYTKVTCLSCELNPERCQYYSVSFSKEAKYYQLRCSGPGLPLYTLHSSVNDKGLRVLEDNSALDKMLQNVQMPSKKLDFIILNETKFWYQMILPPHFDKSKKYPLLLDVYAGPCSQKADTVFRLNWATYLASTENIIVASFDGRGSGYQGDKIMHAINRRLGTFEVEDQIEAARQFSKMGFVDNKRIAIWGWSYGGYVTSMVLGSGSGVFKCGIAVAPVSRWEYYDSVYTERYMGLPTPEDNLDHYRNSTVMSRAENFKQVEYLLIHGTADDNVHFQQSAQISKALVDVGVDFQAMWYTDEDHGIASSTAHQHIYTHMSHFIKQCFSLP

`CC(C)N1CCC(c2ccccc2)(c2ccccc2)CC1` [Prodipine, Pro-Pro-diphenyl-phosphonate]: in the series on cardiac allograft, the cardiac allograft survival is on record as 14 day. Turning to `CC(C)[C@H](N)C(=O)N1CCC[C@H]1B(O)O` [Val-Boro-Pro], the hematopoiesis entry with hematopoiesis is on record as “stimulates hematopoiesis”. Take diprotin A: the “degradation of GRF in plasma to GRF[3–44]” value at DP-IV is reported as “prevented”.
